Measured values taken from patent publication US20210308089A1, “METHODS OF TREATING AND/OR PREVENTING VIRAL INFECTIONS AND/OR DISEASES CAUSED BY VIRUSES IN A SUBJECT IN NEED THEREOF” (priority 2020, published 2021).
Like-named read-outs stand apart in the source and are kept apart here.

System: patients of the REDUCE-IT and earlier EPA placebo-controlled trials
Assay type: in vivo, human
Conditions: R-I
[1] = Bilirubin shift: normal to high (Day 120)
[2] = Bilirubin shift: normal to high (Day 360)
[3] = Bilirubin shift: normal to high (Day 720)
[4] = Bilirubin shift: normal to high (Day 1080)
[5] = Bilirubin shift: normal to high (Day 1440)
[6] = Bilirubin shift: normal to high (Day 1800)

Q: Which results are given for `CC/C=C\C/C=C\C/C=C\C/C=C\C/C=C\CCCC(=O)OCC` [icosapent ethyl, eicosapentaenoic acid ethyl ester]?
A: Risk Ratio (95% CI): ALP shift: normal to high (Day 1080): 0.395 (0.280 to 0.528) 4; Risk Ratio (95% CI): ALP shift: normal to high (Day 1440): 0.406 (0.287 to 0.575) 3; Risk Ratio (95% CI): ALP shift: normal to high (Day 1800): 0.439 (0.280 to 0.688) 3; Risk Ratio (95% CI): ALP shift: normal to low (Day 120): 3.341 (1.343 to 8.311) −4; Risk Ratio (95% CI): ALP shift: normal to low (Day 360): 2.394 (0.994 to 5.767) −3; Risk Ratio (95% CI): ALP shift: normal to low (Day 720): 2.783 (1.178 to 6.572) −4; Risk Ratio (95% CI): ALP shift: normal to low (Day 1080): 1.938 (0.831 to 4.522) −3; Risk Ratio (95% CI): ALP shift: normal to low (Day 1440): 1.199 (0.562 to 2.556) −1; Risk Ratio (95% CI): Albumin high (Day 120): 2.263 (1.388 to 3.689) −3; Risk Ratio (95% CI): Albumin high (Day 360): 1.901 (1.217 to 2.969) −3; Risk Ratio (95% CI): Albumin high (Day 720): 1.365 (0.975 to 1.911) −2; Risk Ratio (95% CI): Albumin high (Day 1080): 1.449 (0.993 to 2.115) −2; Risk Ratio (95% CI): Albumin high (Day 1440): 1.540 (1.001 to 2.369) −2; Risk Ratio (95% CI): Albumin shift: normal to high (Day 120): 3.055 (1.709 to 5.461) −4; Risk Ratio (95% CI): Albumin shift: normal to high (Day 360): 2.364 (1.388 to 4.027) −3; Risk Ratio (95% CI): Albumin shift: normal to high (Day 720): 1.475 (1.028 to 2.116) −2; Risk Ratio (95% CI): Albumin shift: normal to high (Day 1080): 1.257 (0.848 to 1.864) −2; Risk Ratio (95% CI): Albumin shift: normal to high (Day 1440): 1.531 (0.974 to 2.408) −2; Risk Ratio (95% CI): Bilirubin >1x ULN to 2x ULN: 3.157 (2.392 to 4.168) −4; Risk Ratio (95% CI): Bilirubin high (Day 120): 4.288 (2.849 to 6.454) −4; Risk Ratio (95% CI): Bilirubin high (Day 360): 3.263 (2.203 to 4.832) −4; Risk Ratio (95% CI): Bilirubin high (Day 720): 5.052 (3.174 to 8.039) −5; Risk Ratio (95% CI): Bilirubin high (Day 1080): 2.430 (1.683 to 3.508) −3; Risk Ratio (95% CI): Bilirubin high (Day 1440): 3.543 (2.243 to 5.596) −4; Risk Ratio (95% CI): Bilirubin high (Day 1800): 2.670 (1.569 to 4.545) −4; Risk Ratio (95% CI): Bilirubin shift: normal to high (Day 120): 5.106 (2.754 to 9.467) −5; Risk Ratio (95% CI): Bilirubin shift: normal to high (Day 360): 5.431 (2.773 to 10.636) −5; Risk Ratio (95% CI): Bilirubin shift: normal to high (Day 720): 4.803 (2.516 to 9.168) −4; Risk Ratio (95% CI): Bilirubin shift: normal to high (Day 1080): 2.235 (1.374 to 3.636) −3; Risk Ratio (95% CI): Bilirubin shift: normal to high (Day 1440): 5.445 (2.687 to 11.034) −5; Risk Ratio (95% CI): Bilirubin shift: normal to high (Day 1800): 2.556 (1.242 to 5.259) −4; Risk Ratio (95% CI): Calcium high (Day 120): 0.799 (0.517 to 1.236) 2; Risk Ratio (95% CI): Calcium high (Day 360): 0.915 (0.593 to 1.412) 1; Risk Ratio (95% CI): Calcium high (Day 720): 0.767 (0.491 to 1.200) 2; Risk Ratio (95% CI): Calcium low (Day 120): 1.399 (0.444 to 4.404) −2; Risk Ratio (95% CI): Calcium low (Day 360): 9.856 (1.262 to 76.953) −5; Risk Ratio (95% CI): Calcium low (Day 720): 2.911 (0.789 to 10.744) −4; Risk Ratio (95% CI): DBP High (≥100 mmHg): 1.121 (0.931 to 1.350) −1; Risk Ratio (95% CI): DBP High and Rose ≥10 mmHg: 1.092 (0.888 to 1.344) −1; Risk Ratio (95% CI): DBP Low (≤50 mmHG): 1.136 (0.732 to 1.763) −1; Risk Ratio (95% CI): DBP Low and dropped ≥10 mmHg: 1.030 (0.644 to 1.648) −1; Risk Ratio (95% CI): DBP dropped ≥10 mmHG: 1.087 (1.028 to 1.150) −1; Risk Ratio (95% CI): DBP rose ≥10 mmHg: 0.983 (0.927 to 1.041) 1; Risk Ratio (95% CI): High platelets (Day 720): 1.503 (1.007 to 2.242) −2; Risk Ratio (95% CI): Low platelets (Day 360): 0.366 (0.253 to 0.530) 4; Risk Ratio (95% CI): Low platelets (Day 720): 0.799 (0.608 to 1.051) 2; Risk Ratio (95% CI): Low platelets (Day 1080): 0.688 (0.512 to 0.925) 2; Risk Ratio (95% CI): Platelet count: PCS Low <100 × 10^3/uL: 0.442 (0.258 to 0.758) 3; Risk Ratio (95% CI): SBP High (≥160 mmHg): 0.912 (0.833 to 1.000) 1; Risk Ratio (95% CI): SBP High and rose ≥20 mmHg: 0.908 (0.805 to 1.023) 1; Risk Ratio (95% CI): SBP Low (≤90 mmHg): 1.819 (1.093 to 3.055) −3; Risk Ratio (95% CI): SBP dropped ≥20 mmHg: 1.117 (1.033 to 1.208) −1; Risk Ratio (95% CI): SBP low and dropped ≥20 mmHg: 1.422 (0.792 to 2.553) −2; Risk Ratio (95% CI): SBP rose ≥20 mmHg: 0.976 (0.912 to 1.045) 1; Risk Ratio (95% CI): Urate high (Day 120): 1.398 (1.246 to 1.568) −2; Risk Ratio (95% CI): Urate high (Day 360): 1.350 (1.197 to 1.523) −2; Risk Ratio (95% CI): Urate high (Day 720): 1.323 (1.162 to 1.506) −2; Risk Ratio (95% CI): Urate high (Day 1080): 1.102 (0.961 to 1.263) −1; Risk Ratio (95% CI): Urate high (Day 1440): 1.109 (0.956 to 1.286) −1; Risk Ratio (95% CI): Urate high (Day 1800): 1.084 (0.883 to 1.331) −1; Risk Ratio (95% CI): Urate shift: normal to high (Day 120): 1.689 (1.369 to 2.084) −3; Risk Ratio (95% CI): Urate shift: normal to high (Day 360): 1.674 (1.363 to 2.056) −3; Risk Ratio (95% CI): Urate shift: normal to high (Day 720): 1.513 (1.227 to 1.865) −2; Risk Ratio (95% CI): Urate shift: normal to high (Day 1080): 1.118 (0.910 to 1.374) −1; Risk Ratio (95% CI): Urate shift: normal to high (Day 1440): 1.079 (0.879 to 1.324) −1; Risk Ratio (95% CI): Urate shift: normal to high (Day 1800): 1.029 (0.782 to 1.355) −1; Risk Ratio (95% CI): Urate shift: normal to low (Day 120): 1.654 (0.396 to 6.915) −2; Risk Ratio (95% CI): Urate shift: normal to low (Day 360): 0.733 (0.255 to 2.110) 2; Risk Ratio (95% CI): Urate shift: normal to low (Day 720): 0.361 (0.096 to 1.360) 4; Risk Ratio (95% CI): Urate shift: normal to low (Day 1080): 0.474 (0.119 to 1.893) 3; Risk Ratio (95% CI): Urate shift: normal to low (Day 1440): 0.210 (0.046 to 0.973) 4; Risk Ratio (95% CI): Uric acid PCS High >7.5 mg/dL (Women): 1.180 (0.974 to 1.429) −1; Risk Ratio (95% CI): Uric acid PCS High >8.0 mg/dL (Men): 1.313 (1.183 to 1.458) −2; Risk Ratio (95% CI): Uric acid PCS Low <1.9 mg/dL (Women): 1.000 (0.063 to 15.986) −1; Risk Ratio (95% CI): Uric acid PCS Low <2.5 mg/dL (Men): 0.650 (0.324 to 1.305) 2; ARR (Bilirubin >1x ULN to 2x ULN): 3.5%; NNT (Bilirubin >1x ULN to 2x ULN): −29; Risk Ratio (95% CI) (Bilirubin >1x ULN to 2x ULN): 3.157 (2.392 to 4.168) −4; ARR (Bilirubin >2x ULN to 3x ULN): 0.2%; NNT (Bilirubin >2x ULN to 3x ULN): −497; Risk Ratio (95% CI) (Bilirubin >2x ULN to 3x ULN): 3.668 (1.024 to 13.136) −4; ARR (Bilirubin high (Day 120)): 2.4%; NNT (Bilirubin high (Day 120)): −42; Risk Ratio (95% CI) (Bilirubin high (Day 120)): 4.288 (2.849 to 6.454) −4; ARR (Bilirubin high (Day 360)): 2.0%; NNT (Bilirubin high (Day 360)): −50; Risk Ratio (95% CI) (Bilirubin high (Day 360)): 3.263 (2.203 to 4.832) −4; ARR (Bilirubin high (Day 720)): 2.6%; NNT (Bilirubin high (Day 720)): −38; Risk Ratio (95% CI) (Bilirubin high (Day 720)): 5.052 (3.174 to 8.039) −5; ARR (Bilirubin high (Day 1080)): 2.0%; NNT (Bilirubin high (Day 1080)): −50; Risk Ratio (95% CI) (Bilirubin high (Day 1080)): 2.430 (1.683 to 3.508) −3; ARR (Bilirubin high (Day 1440)): 2.5%; NNT (Bilirubin high (Day 1440)): −40; Risk Ratio (95% CI) (Bilirubin high (Day 1440)): 3.543 (2.243 to 5.596) −4; ARR (Bilirubin high (Day 1800)): 2.3%; NNT (Bilirubin high (Day 1800)): −43; Risk Ratio (95% CI) (Bilirubin high (Day 1800)): 2.670 (1.569 to 4.545) −4; ARR [1]: 1.3%; NNT [1]: −77; Risk Ratio (95% CI) [1]: 5.106 (2.754 to 9.467) −5; ARR [2]: 1.3%; NNT [2]: −80; Risk Ratio (95% CI) [2]: 5.431 (2.773 to 10.636) −5; ARR [3]: 1.3%; NNT [3]: −76; Risk Ratio (95% CI) [3]: 4.803 (2.516 to 9.168) −4; ARR [4]: 1.0%; NNT [4]: −95; Risk Ratio (95% CI) [4]: 2.235 (1.374 to 3.636) −3; ARR [5]: 1.8%; NNT [5]: −57; Risk Ratio (95% CI) [5]: 5.445 (2.687 to 11.034) −5; ARR [6]: 1.2%; NNT [6]: −81; Risk Ratio (95% CI) [6]: 2.556 (1.242 to 5.259) −4; Placebo-Adjusted % Change (Erythrocytes (Day 120)): +.72%; Placebo-Adjusted % Change (Erythrocytes (Day 360)): +.26%; Placebo-Adjusted % Change (Erythrocytes (Day 720)): +.29%; Placebo-Adjusted % Change (Erythrocytes (Day 1080)): +.43%; Placebo-Adjusted % Change (Erythrocytes (Day 1440)): +.66%; ARR (Erythrocytes low (Day 120)): −1.3%; NNT (Erythrocytes low (Day 120)): 77; Risk Ratio (95% CI) (Erythrocytes low (Day 120)): 0.814 (0.685 to 0.968) 1; ARR (Erythrocytes low (Day 360)): −0.4%; NNT (Erythrocytes low (Day 360)): 223; Risk Ratio (95% CI) (Erythrocytes low (Day 360)): 0.932 (0.781 to 1.113) 1; ARR (Erythrocytes low (Day 720)): −0.4%; NNT (Erythrocytes low (Day 720)): 251; Risk Ratio (95% CI) (Erythrocytes low (Day 720)): 0.940 (0.779 to 1.133) 1; ARR (Erythrocytes low (Day 1080)): −1.7%; NNT (Erythrocytes low (Day 1080)): 60; Risk Ratio (95% CI) (Erythrocytes low (Day 1080)): 0.781 (0.642 to 0.950) 2; ARR (Erythrocytes low (Day 1440)): −0.8%; NNT (Erythrocytes low (Day 1440)): 120; Risk Ratio (95% CI) (Erythrocytes low (Day 1440)): 0.888 (0.720 to 1.093) 1; ARR (Erythrocytes low (Day 1800)): −0.2%; NNT (Erythrocytes low (Day 1800)): 485; Risk Ratio (95% CI) (Erythrocytes low (Day 1800)): 0.975 (0.756 to 1.258) 1; Placebo-Adjusted % Change (Hematocrit (Day 120)): +.42%
